Here are results for 4 compounds from patent publication US20170087158A1, “JANUS KINASE INHIBITORS FOR TREATMENT OF DRY EYE AND OTHER EYE RELATED DISEASES” (Incyte Corporation, priority 2008, published 2017).

Experiment [1] concerns JAK.
Method: Compounds herein are tested for inhibitory activity of JAK targets according to the following in vitro assay described in Park et al., Analytical Biochemistry 1999, 269, 94-104. The catalytic domains of human JAK1 (a.a. 837-1142), Jak2 (a.a. 828-1132) and Jak3 (a.a. 781-1124) with an N-terminal His tag are expressed using baculovirus in insect cells and purified. The catalytic activity of JAK1, JAK2 or JAK3 is assayed by measuring the phosphorylation of a biotinylated peptide. The phosphorylated peptide is detected by homogenous time resolved fluorescence (HTRF). IC50s of compounds is measured for each kinase in the reactions that contain the enzyme, ATP and 500 nM peptide in 50 mM Tris (pH 7.8) buffer with 100 mM NaCl, 5 mM DTT, and 0.1 mg/mL (0.01%) BSA. The ATP concentration in the reactions is 90 μM for Jak1, 30 μM for Jak2 and 3 μM for Jak3. Reactions are carried out at room temperature for 1 hr and then stopped with 20 μL 45 mM EDTA, 300 nM SA-APC, 6 nM Eu-Py20 in assay buffer (Perkin Elmer, Boston, Mass.). Binding to the Europium labeled antibody takes place for 40 minutes and HTRF signal is measured on a Fusion plate reader (Perkin Elmer, Boston, Mass.).
Experiment [2] relates to myeloid dendritic cells (DCs). To be noted: CD40-induced maturation of myeloid DCs; Saemann et al. 2003; cited from earlier work.
For experiment [3], the system named is NOD mouse model of autoimmune type 1 diabetes. To be noted: Cetkovic-Cvrlje et al. 2003; cited from earlier work.

Consider `N#CC[C@H](C1CCCC1)n1cc(-c2ncnc3[nH]ccc23)cn1` (mixture of isomers) [Example 67, (3R)- and (3S)-3-Cyclopentyl-3-[4-(7H-pyrrolo[2,3-d]pyrimidin-4-yl)-1H-pyrazol-1-yl]propanenitrile], for which the JAK inhibitor activity result in experiment [1] (qualitative, b1163: IC50 of 10 μM or less for any JAK target (JAK1, JAK2, JAK3) is considered active) was “active JAK inhibitors”.
As for `COc1cc2ncnc(Nc3ccc(O)c(Br)c3)c2cc1OC` [WHI-P-154], the “effect on CD40-induced JAK3 activity, costimulatory molecule expression, IL-12 production and allogeneic stimulatory capacity” value in experiment [2] is “prevented these effects”.
Turning to `COc1cc2ncnc(Nc3ccc(O)cc3)c2cc1OC` [JANEX-1], in experiment [3], the immunomodulatory activity result is recorded as “potent immunomodulatory activity” and the onset of diabetes result is listed as “delayed the onset of diabetes”.
As to `N#CCC(C1CCCC1)n1cc(-c2ncnc3[nH]ccc23)cn1` (single isomer, unassigned; peak 3) [Example 67 second peak, 3-Cyclopentyl-3-[4-(7H-pyrrolo[2,3-d]pyrimidin-4-yl)-1H-pyrazol-1-yl]propanenitrile], the “JAK inhibitor activity relative to its enantiomer” value in experiment [1] (final products from the enantiomers separated by preparative-HPLC (OD-H)) is recorded as “more active than its enantiomer”.
